Data published in patent US11168052B2, “Carbamate derivative compounds, processes for preparing them and their uses” (BIO-PHARM SOLUTIONS CO., LTD., priority 2016, dated 2021).

Assays:
[1] = tested on: acetic acid-induced writhes in ICR mice; assay: Writhing test (acetic acid); assay type: in vivo; conditions: Mus musculus, po
Experimental: To examine the pain relief effect of the carbamate compounds, a writhing test was conducted, referring to Fischer, L. G. et al. (2008).
ICR mice (male, 24-28g; Orient Bio, Korea) were habituated before test (in test room) for 1 hour. Animals were fasted 2 hr before administration of compounds. Each of compounds was orally administered at the three dose, 10 ul/g, bw (n=3-5/group). All compounds were dissolved in a vehicle of 30% (v/v) PEG 400 or 20% (v/v) Tween 80. The control group was treated the vehicle without compounds.
0.2-2 hour after the administration of compounds, 0.6% acetic acid at the dose of 10 ul/g by bodyweight was injected into the mice Animals were habituated in the cage for 5 min. 5 min after habituation, the number of writhes (abdominal constriction) was counted for 15 min, referring to Korzeniewska-Rybicka, I. et al. (1998) and compared with that of a control.
The relative values compared to the control (% control) were calculated and shown in […]

[2] = tested on: ICR mice, tail-flick analgesia meter; assay: Tail-flick test; assay type: in vivo; conditions: orally, withdrawal latency
Experimental: To examine the pain relief effect of the carbamate compounds, a tail-flick test was conducted, referring to Current Protocols in Neuroscience; Behavioral Neuroscience Unit 8.9.
ICR mice (male, 25-30g; Orient Bio, Korea) were habituated before test (in test room) for 1 hour. Animals were fasted 2 hr before administration of compounds. Each of Compound was orally administered at the 1-3 dose, 10 ul/g, by bodyweight (n=4-6/group). All compounds were dissolved in a vehicle of 30% (v/v) PEG 400 or 20% (v/v) Tween 80. The control group was treated the vehicle without compounds.
After the administration of compounds, the mice tail were put on a tail-flick analgesia meter. To avoid tissue damage, maximal exposure time to pain stimuli was restricted to 15 s. The withdrawal latency was measured to the time to the point when each mouse responded. The relative values compared to the control (% control) were calculated.
The relative values compared to the sham were calculated and shown in Table 7, which show effect of the compound of examples on tail-flick test in Mice.

[3] = tested on: MES (electroshock) seizure in mice; assay: Anti-epilepsy activity, MES test in mouse; assay type: in vivo, ICR mice; conditions: po
Outline: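 Male ICR mice (19–25 g) and male SD rats (100–130 g) dosed orally with compound in 20% Tween 80/saline, then shocked via corneal electrodes at peak time (mice 50 mA, rats 150 mA; 60 Hz, 0.2 sec). Three doses used; ED50 for seizure protection by Litchfield–Wilcoxon log-probit.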

[4] = tested on: PTZ (Pentylenetetrazol)-induced clonic seizure in rats; assay: Anti-epilepsy activity, scPTZ test in rats; assay type: in vivo, SD rats; conditions: Rattus norvegicus, ip
From the text: In this experiment, each test compound sample was formulated as described in Biological Experimental Example 1, and administered intraperitoneally to the test animals (mice; ICR or Rat; SD); Experimental animals, male ICR mice and male SD rats, were purchased from OrientBio or Nara biotech, Korea, and housed 4-5 mice per a cage for 4-5 days. The range of mice body weight was used between 19 and 26 grams and range of rats body weight was used between 100 and 130 grams. After Peak time (0.5, 1, 2 and 4 hr) from the administration, PTZ (Pentylenetetrazol) was administered subcutaneously in the concentration capable of inducing 97% intermittent convulsions (mice: 100-110 mg/kg?bw, 10 μl/g, or rats: 90-110 mg/kg?bw, 2 μl/g). If clonic seizure was not observed for at least 30 minutes in the PTZ administered animal, it can be considered that the test compound has anti-epilepsy activity. The median effective dose (ED50) is determined using 6 animals per a concentration (total three different concentrations), and calculated by Litchfield and Wicoxon log-probit method which is a dose-response relationship.

[5] = tested on: Picrotoxin (PIC)-induced clonic seizure in mice; assay: Chemical induced seizure model (PIC); assay type: in vivo, ICR mice
Experimental: Picrotoxin (PIC) were used to induce the behavioral seizures in the experiments. Male ICR mice (purchased from Orient Bio Inc. Korea) of body weight 19-26 g (mice) were used for these studies. The test materials were administered intraperitoneal (ip) route in a volume of 10 ul/g (mice) weight in rats or mice, respectively. Pharmacological effects of the test materials were evaluated to compared test groups (n=6) with a control group (n=6). Control group was administrated vehicle, only. The peak time was determined by administration of test material's random dose for 0.5, 1, 2, 4 hour. The time that the most protect was defined as a peak time and ED50 was determined by other dose administration at the peak time. Chemical (PIC) was dissolved in 0.9% saline and administered subcutaneously (s.c.) at its CD97 (convulsive dose 97%), the dose of Chemical (PIC) that produced clonic seizures in 97% into a loose fold of skin in the midline of the neck in a volume of 10 ul/g (mice) body weight. The animals were then transferred to observation cages and observed continuously for 45 min. Clonic seizure was elicited in approximately 97% of control group. Protection was defined as a complete absence of clonic seizure over the 45-min observation period. The effective dose of compound necessary to protect against generalized convulsive seizures to 50% of controls (i.e., ED50) was determined by log probit analysis using SPSS software program (SPSS Inc.). (Reference; White H. S., J. H. Woodhead, K. S. Wilcox, J. P. Stables, H. J. Kupferberg, and H. H. Wolf. General Principles; Discovery and Preclinical Development of Antiepileptic Drugs. In: R. H. Levy, R. H. Mattson, B. S. Meldrum, and E. Perucca, eds. Antiepileptic Drugs, 5th Ed. Lippincott Williams & Wilkins, Philadelphia 2002: pp. 36-48.) The obtained results are shown in following Table 10.

NC(=O)O[C@@H]1CCc2cccc(Cl)c2[C@@H]1O [Example 1, (1S, 2R)-8-chloro-1-hydroxy-1,2,3,4-tetrahydronaphthalen-2-yl carbamate]
ED50 [1]: 46.1 mg/kg | Tail-flick test Dose [2]: >150 mg/kg | ED50 [3]: 12.1 mg/kg | ED50 [4]: 36.3 mg/kg | ED50 ([5]; Mus musculus, ip, read-out: PIC(ip) ED50): 23.7 mg/kg

NC(=O)O[C@@H]1c2c(Cl)cccc2CC[C@@H]1O [Example 19, (1R, 2S)-8-chloro-2-hydroxy-1,2,3,4-tetrahydronaphthalen-1-yl carbamate]
ED50 [1]: 30 mg/kg | Tail-flick test Dose [2]: >200 mg/kg | ED50 [3]: 22.4 mg/kg | ED50 [4]: 50 mg/kg | PIC(ip) efficacy % ([5]; mice, dose 120 mg/kg): 120 (16.6%)
